This passage reports EC50 results from US11649236B2, “Polycyclic carbamoylpyridone derivative” (Shionogi & Co., Ltd., priority 2018, dated 2023).

Usually EC50 stands for the midpoint of the concentration-response curve. Read a low EC50 as a more potent agent.

Each structure is given as a SMILES string.

For this assay, the system named is HIV. In words: Anti-HIV activity (MT-4 cells, MTT). In kind it is cell-based. To be noted: Human immunodeficiency virus 1, MT4, 96 h, cultured 4 days. The procedure: Serial dilutions of a test sample were prepared in a 96-well microplate (50 μL/well). 2.5×10^5 cells/mL of a MT-4 cell suspension was dispensed at 100 μL/well to the plate containing the test sample. Then, an HIV virus solution was dispensed at 50 μL/well. The plate was mixed with a plate mixer and cultured for 4 days in a CO2 incubator. An MTT (3-(4,5-dimethylthiazol-2-yl)-2,5-diphenyltetrazolium bromide) solution was dispensed at 30 μL/well. The plate was reacted for 1 hour in a CO2 incubator. 150 μL of the supernatant was removed from each well so as not to take up the cells. 150 μL of a cell lysis solution was added to each well and well mixed with a plate mixer until the cells were completely lysed. The absorbance of the mixed plate was measured at two wavelengths of 560 nm and 690 nm with a microplate reader.
In turn, `O=C(NCc1ccc(F)cc1F)c1cn2c(c(O)c1=O)C(=O)N(C[C@@H]1CCCO1)[C@@H]1CCCCN12` [Compound I-023] had a half-maximal effective concentration (EC50) of 0.62 nM. This counts as sub-nanomolar.
In turn, `CCN1C(=O)c2c(O)c(=O)c(C(=O)NCc3ccc(F)cc3F)cn2N2Cc3ccc(Cl)cc3[C@@H]12` [II-084] gave a concentration giving a half-maximal response (EC50) of 1.8 nM.
The figure for `CN1C(=O)c2c(O)c(=O)c(C(=O)NCc3cccc(Cl)c3F)cn2N2Cc3ccccc3[C@@H]12` [II-063] is 3.6 nM; for `CCN1C(=O)c2c(O)c(=O)c(C(=O)NCc3ccc(F)cc3F)cn2N2C[C@H](OC)CC[C@@H]12` [II-059] it is 0.66 nM; for `CCN1C(=O)c2c(O)c(=O)c(C(=O)NCc3ccc(Cl)cc3F)cn2N2CCCC[C@@H]12` [Compound I-035] it is 3.2 nM.
In turn, `COCCN1C(=O)c2c(O)c(=O)c(C(=O)NCc3ccc(F)cc3F)cn2N2CCCC[C@@H]12` [Compound I-016] displayed an EC50 of 1.4 nM.
With `C[C@@H]1CCC[C@H]2N(C)C(=O)c3c(O)c(=O)c(C(=O)NCc4ccc(Cl)cc4F)cn3N12` [II-091], a half-maximal effect (EC50) was put at 4.1 nM. Compared with the last molecule, the EC50 is about 2.9-fold higher.
Turning to `CCN1C(=O)c2c(O)c(=O)c(C(=O)NCc3ccc(F)cc3F)cn2N2[C@H](C)CC[C@@H]12` [II-068], the EC50 stood at 0.61 nM.
Then `CCN1C(=O)c2c(O)c(=O)c(C(=O)NCc3ccc(F)cc3F)cn2N2[C@H](C)c3cc(F)ccc3[C@@H]12` [II-155], with 1.2 nM; and `CCN1C(=O)c2c(O)c(=O)c(C(=O)NCc3ccc(F)cc3F)cn2N2CCN(C)C[C@@H]12` [Compound I-013], with 5.6 nM; and `O=C(NCc1ccc(F)cc1F)c1cn2c(c(O)c1=O)C(=O)N1CCCC[C@]13CCCCN23` [II-147], with 0.66 nM.
Turning to `C[C@H]1C[C@H]2N(C)C(=O)c3c(O)c(=O)c(C(=O)NCc4ccc(Cl)cc4F)cn3N2C1` [II-065], the EC50 worked out at 4.9 nM.
The figure for `C[C@H]1CCN2[C@@H](C1)N(C)C(=O)c1c(O)c(=O)c(C(=O)NCc3ccc(Cl)cc3F)cn12` [II-061] is 3.4 nM; for `CN1C(=O)c2c(O)c(=O)c(C(=O)NCc3cccc(Cl)c3F)cn2N2C[C@@H]3CCC[C@@H](O3)[C@@H]12` [II-152] it is 0.7 nM.
Turning to `CCN1C(=O)c2c(O)c(=O)c(C(=O)NCc3nn(C)cc3Cl)cn2N2CCCC[C@@H]12` [II-135], the response was half-maximal at 18 nM (EC50).
Then `C[C@H](N1C(=O)c2c(O)c(=O)c(C(=O)NCc3ccc(F)cc3F)cn2N2CCCC[C@@H]12)C(F)(F)F` [II-043], with 1.4 nM; and `CCN1C(=O)c2c(O)c(=O)c(C(=O)NCc3ccc(F)cc3F)cn2N2CC[C@@H](C(F)(F)F)C[C@@H]12` [II-132], with 0.51 nM; and `COC[C@H](C)N1C(=O)c2c(O)c(=O)c(C(=O)NCc3ccc(F)cc3F)cn2N2CCCC[C@@H]12` [Compound I-039], with 4.4 nM.
The figure for `CCN1C(=O)c2c(O)c(=O)c(C(=O)NCc3ccc(F)cc3F)cn2N2CC=C[C@@H]12` [II-109] is 2.4 nM; for `CCN1C(=O)c2c(O)c(=O)c(C(=O)NCc3ccc(F)cc3F)cn2N2C[C@H](C)CC[C@@H]12` [II-052] it is 0.62 nM.
The molecule `CCN1C(=O)c2c(O)c(=O)c(C(=O)NCc3ccc(F)cc3F)cn2N2CCC[C@@]12C` [Compound I-008] had an EC50 of 2 nM.
Then `CCN1C(=O)c2c(O)c(=O)c(C(=O)NCc3ccc(F)cc3F)cn2N2CCN(c3ccccc3)C[C@@H]12` [II-143], with 3.2 nM; and `CCN1C(=O)c2c(O)c(=O)c(C(=O)NCc3ccc(F)cc3F)cn2N2CCN(CC3CC3)C[C@@H]12` [II-101], with 1.6 nM.
The figure for `C[C@@H]1CCN2[C@@H](C1)N(C)C(=O)c1c(O)c(=O)c(C(=O)NCc3cccc(Cl)c3F)cn12` [II-036] is 3.8 nM; for `CCN1C(=O)c2c(O)c(=O)c(C(=O)NCc3ccc(Br)cc3F)cn2N2CCCC[C@@H]12` [Compound I-014] it is 10 nM.
Then `CCN1C(=O)c2c(O)c(=O)c(C(=O)NCc3c(F)cccc3Cl)cn2N2CCCC[C@@H]12` [II-148], with 0.5 nM; and `CCN1C(=O)c2c(O)c(=O)c(C(=O)NCc3ccc(F)cc3Cl)cn2N2CCCC[C@@H]12` [Compound I-038], with 0.72 nM; and `CCN1C(=O)c2c(O)c(=O)c(C(=O)NCc3ccc(F)c(C)c3F)cn2N2CCCC[C@@H]12` [Compound I-012], with 4 nM.
On to `Cc1c(F)ccc(CNC(=O)c2cn3c(c(O)c2=O)C(=O)N(C)[C@@H]2CCCCN23)c1F` [II-054], for which a half-maximal response (EC50) required 0.34 nM.
In the case of `CCN1C(=O)c2c(O)c(=O)c(C(=O)NCc3c(F)cc(F)cc3F)cn2N2CC[C@H](C)C[C@@H]12` [II-069], the EC50 amounted to 0.9 nM.
As to `CCN1C(=O)c2c(O)c(=O)c(C(=O)NCc3ccc(F)cc3F)cn2N2CC[C@H](COC)C[C@@H]12` [II-055], a half-maximal effect (EC50) was put at 0.58 nM.
In turn, `CCN1C(=O)c2c(O)c(=O)c(C(=O)NCc3c(F)cc(F)cc3F)cn2N2[C@H](C)CCC[C@@H]12` [II-053] gave an EC50 of 1.4 nM.
The figure for `C[C@H]1C[C@H]2N(C)C(=O)c3c(O)c(=O)c(C(=O)NCc4ccc(F)cc4F)cn3N2C1` [II-121] is 0.71 nM; for `CC(C)N1C(=O)c2c(O)c(=O)c(C(=O)NCc3c(F)cc(F)cc3F)cn2N2C[C@@H](C)CC[C@@H]12` [II-001] it is 1 nM.
Then `CCN1C(=O)c2c(O)c(=O)c(C(=O)NCc3ccc(F)cc3F)cn2N2CCN(CCOC)C[C@@H]12` [II-088], with 3.1 nM; and `CCN1C(=O)c2c(O)c(=O)c(C(=O)NC3(c4cccc(Cl)c4F)CC3)cn2N2CCCC[C@@H]12` [II-003], with 6.2 nM.
With `CCN1C(=O)c2c(O)c(=O)c(C(=O)NCc3ccc(F)cc3F)cn2N2CC[C@H](C(F)(F)F)C[C@@H]12` [II-114], the EC50 was 1.5 nM.
For `O=C(NCc1ccc(F)cc1F)c1cn2c(c(O)c1=O)C(=O)N(C1CCCC1)[C@@H]1CCCCN12` [Compound I-026], the EC50 is 3.5 nM.
For `CCN1C(=O)c2c(O)c(=O)c(C(=O)NCc3ccc(F)c(Cl)c3F)cn2N2CCCC[C@@H]12` [Compound I-003], the EC50 came to 1.4 nM.
The figure for `O=C(NCc1ccc(F)cc1F)c1cn2c(c(O)c1=O)C(=O)N(Cc1ccc(F)cc1F)[C@@H]1CCCCN12` [Compound I-043] is 3.5 nM; for `CN1C(=O)c2c(O)c(=O)c(C(=O)NCc3c(F)cc(F)cc3F)cn2N2C[C@H]3C[C@H](C3)[C@@H]12` [II-158] it is 0.27 nM; for `CCN1C(=O)c2c(O)c(=O)c(C(=O)NCc3c(F)ccc(Cl)c3F)cn2N2CCCC[C@@H]12` [Compound I-048] it is 1.2 nM.
The figure for `C[C@@H]1CCN2[C@@H](C1)N(C)C(=O)c1c(O)c(=O)c(C(=O)NCc3ccc(F)cc3F)cn12` [II-086] is 1 nM; for `CCN1C(=O)c2c(O)c(=O)c(C(=O)NCc3ccc(F)cc3F)cn2N2CCN(Cc3ccccc3)C[C@@H]12` [II-100] it is 3 nM.
Regarding `CCN1C(=O)c2c(O)c(=O)c(C(=O)NCc3ccccc3F)cn2N2CCCC[C@@H]12` [II-092], the EC50 was determined as 0.33 nM.
Molecule `CN1C(=O)c2c(O)c(=O)c(C(=O)NCc3ccc(Cl)cc3F)cn2N2Cc3ccccc3[C@@H]12` [II-029] returned an EC50 of 3.8 nM.
On to `CN1C(=O)c2c(O)c(=O)c(C(=O)NCc3ccc(F)c(Cl)c3F)cn2N2CCCC[C@@H]12` [II-033], for which the concentration giving a half-maximal response (EC50) is 0.22 nM.
Regarding `CCN1C(=O)c2c(O)c(=O)c(C(=O)NCc3ccc(F)cc3F)cn2N2Cc3ccc(F)cc3[C@@]12C` [II-154], the EC50 was found to be 0.67 nM.
The molecule `CCN1C(=O)c2c(O)c(=O)c(C(=O)NC3(c4ccc(F)cc4F)CC3)cn2N2CCCC[C@@H]12` [Compound I-017] returned an EC50 of 6.1 nM.
As for `CCN1C(=O)c2c(O)c(=O)c(C(=O)NCc3ccc(F)cc3F)cn2N2C[C@@H]3C[C@@H]3[C@@H]12` [II-083], the EC50 amounted to 0.95 nM.
As to `CCN1C(=O)c2c(O)c(=O)c(C(=O)N[C@H](C)c3ccc(F)cc3F)cn2N2CCCC[C@@H]12` [Compound I-029], it took 12 nM to reach a half-maximal effect (EC50). Compared with the last molecule, the EC50 is about 13-fold higher.
The figure for `CCN1C(=O)c2c(O)c(=O)c(C(=O)NCc3ccc(F)cc3F)cn2N2CCCC(C)(C)[C@@H]12` [Compound I-020] is 1.3 nM; for `C[C@@H]1CCC[C@H]2N(C)C(=O)c3c(O)c(=O)c(C(=O)NCc4c(F)cc(F)cc4F)cn3N12` [II-094] it is 0.57 nM; for `CCN1C(=O)c2c(O)c(=O)c(C(=O)NCc3ccc(F)cc3F)cn2N2Cc3ccccc3[C@@H]12` [Compound I-018] it is 2.1 nM.
Then `CCN1C(=O)c2c(O)c(=O)c(C(=O)NCc3ccc(F)cc3F)cn2N2CCC3(CCC3)C[C@@H]12` [II-017], with 1.6 nM; and `CCCN1C(=O)c2c(O)c(=O)c(C(=O)NCc3ccc(F)cc3F)cn2N2CCCC[C@@H]12` [Compound I-021], with 1.1 nM.
Molecule `CCN1C(=O)c2c(O)c(=O)c(C(=O)NCc3ccc(F)cc3F)cn2N2CCN(C(=O)NC)C[C@@H]12` [II-110] gave a 50% effective concentration (EC50) of 2.1 nM. Compared with the last molecule, the EC50 is about 1.9-fold higher.
The figure for `CCN1C(=O)c2c(O)c(=O)c(C(=O)NCc3cccc(Cl)c3)cn2N2CCCC[C@@H]12` [II-134] is 3 nM.
Then `CCN1C(=O)c2c(O)c(=O)c(C(=O)NCc3cc(F)cc(F)c3F)cn2N2CCCC[C@@H]12` [II-142], with 0.74 nM.
Then `O=C(NCc1ccc(F)cc1F)c1cn2c(c(O)c1=O)C(=O)N(CC1CC1)[C@@H]1CCCCN12` [Compound I-028], with 1.9 nM; and `O=C(NCc1ccc(F)cc1F)c1cn2c(c(O)c1=O)C(=O)N(CC(F)(F)F)[C@@H]1CCCCN12` [Compound I-053], with 0.94 nM; and `CC[C@@H](NC(=O)c1cn2c(c(O)c1=O)C(=O)N(CC)[C@@H]1CCCCN12)c1ccc(F)cc1F` [II-137], with 33 nM.
The molecule `CCN1C(=O)c2c(O)c(=O)c(C(=O)NCc3ccc(F)cc3F)cn2N2[C@@H]3COC[C@@H]3C[C@@H]12` [II-145] returned an EC50 of 0.68 nM.
